Experimental data reported in publication PMC2866172 (Journal of medicinal chemistry, 2010).

Tests used:
[1] = Brain PET imaging in anesthetized baboons; conditions: for Blood-brain barrier penetration: healthy baboons, TAC, AUC and image
[2] = patients with inflamed meninges, single 3 g oral dose; cited from earlier work
[3] = PPB determination in pooled baboon plasma; conditions: pooled baboon plasma, 10 min room temperature, % unbound
[4] = Torso PET imaging in anesthetized baboons; conditions: for Calculated drug concentration in heart / Calculated drug concentration in kidney cortex / Calculated drug concentration in kidney medulla / Calculated drug concentration in liver / Calculated drug concentration in lung / Calculated drug concentration in plasma: calculated assuming 5 mg/kg dose, 17 kg baboon; for Concentration in heart / Concentration in kidney cortex / Concentration in kidney medulla / Concentration in liver / Concentration in lung / Concentration in plasma: baboon, i.v.

For `NC(=O)c1cnccn1` [PZA, pyrazinamide], the Blood-brain barrier penetration ([1]; i.v.) is given as “excellent penetration”, the “CSF concentration of PZA” value [2] is given as 50 µg/mL and the “PPB (value expressed as % of free fraction in plasma)” value [3] is given as 91.32%.
For `NN[11C](=O)c1ccncc1` [[^11C]INH], the “Estimated concentration in whole brain, C30min” value ([1]; 30 min, estimated from baboon weight, 5 mg/kg dose, signal assumed intact drug) was 2.54 µg/mL, the “Estimated concentration in whole brain, C60min” value ([1]; 60 min, estimated from baboon weight, 5 mg/kg dose, signal assumed intact drug) was 2.11 µg/mL and the “Estimated concentration in whole brain, C90min” value ([1]; 90 min, estimated from baboon weight, 5 mg/kg dose, signal assumed intact drug) was 1.75 µg/mL. The “Concentration in whole brain, C30min” value ([1]; baboon, i.v., 30 min) was 0.00299 %ID/cc, the “Concentration in whole brain, C60min” value ([1]; baboon, i.v., 60 min) was 0.00248 %ID/cc and the “Concentration in whole brain, C90min” value ([1]; baboon, i.v., 90 min) was 0.00206 %ID/cc. The Blood-brain barrier penetration ([1]; i.v.) was “higher initial brain penetration and tissue accumulation when compared to RIF”, the “Calculated drug concentration in heart” value ([4]; 15 min) was “(8.72) µg/ml” and the “Calculated drug concentration in kidney cortex” value ([4]; 15 min) was “(15.06) µg/ml”. The “Calculated drug concentration in kidney medulla” value ([4]; 15 min) was “(18.94) µg/ml”, the “Calculated drug concentration in liver” value ([4]; 15 min) was “(12.50) µg/ml” and the “Calculated drug concentration in lung” value ([4]; 15 min) was “(7.72) µg/ml”. The “Calculated drug concentration in plasma” value ([4]; 15 min) was “(3.76) µg/ml”, the “Calculated drug concentration in heart” value ([4]; 30 min) was “(6.13) µg/ml” and the “Calculated drug concentration in kidney cortex” value ([4]; 30 min) was “(9.26) µg/ml”. The “Calculated drug concentration in kidney medulla” value ([4]; 30 min) was “(15.43) µg/ml”, the “Calculated drug concentration in liver” value ([4]; 30 min) was “(9.71) µg/ml” and the “Calculated drug concentration in lung” value ([4]; 30 min) was “(6.09) µg/ml”. For the same compound, the “Calculated drug concentration in plasma” value ([4]; 30 min) was “(2.96) µg/ml”, the “Calculated drug concentration in heart” value ([4]; 60 min) was “(3.74) µg/ml” and the “Calculated drug concentration in kidney cortex” value ([4]; 60 min) was “(7.72) µg/ml”. For the same compound, the “Calculated drug concentration in kidney medulla” value ([4]; 60 min) was “(16.37) µg/ml”, the “Calculated drug concentration in liver” value ([4]; 60 min) was “(7.64) µg/ml” and the “Calculated drug concentration in lung” value ([4]; 60 min) was “(4.42) µg/ml”. For the same compound, the “Calculated drug concentration in plasma” value ([4]; 60 min) was “(2.05) µg/ml”, the “Calculated drug concentration in heart” value ([4]; 90 min) was “(4.15) µg/ml” and the “Calculated drug concentration in kidney cortex” value ([4]; 90 min) was “(8.54) µg/ml”. For the same compound, the “Calculated drug concentration in kidney medulla” value ([4]; 90 min) was “(14.69) µg/ml”, the “Calculated drug concentration in liver” value ([4]; 90 min) was “(6.91) µg/ml” and the “Calculated drug concentration in lung” value ([4]; 90 min) was “(4.19) µg/ml”. The “Calculated drug concentration in plasma” value ([4]; 90 min) was “(1.62) µg/ml”, the Concentration in heart ([4]; 15 min after administration) was 0.0103 %ID/cc and the “Concentration in kidney cortex” value ([4]; 15 min after administration) was 0.0177 %ID/cc. For the same compound, the “Concentration in kidney medulla” value ([4]; 15 min after administration) was 0.0223 %ID/cc, the Concentration in liver ([4]; 15 min after administration) was 0.0147 %ID/cc and the Concentration in lung ([4]; 15 min after administration) was 0.0091 %ID/cc. The Concentration in plasma ([4]; 15 min after administration) was 0.00442 %ID/cc, the Concentration in heart ([4]; 30 min after administration) was 0.0072 %ID/cc and the “Concentration in kidney cortex” value ([4]; 30 min after administration) was 0.0109 %ID/cc. The “Concentration in kidney medulla” value ([4]; 30 min after administration) was 0.0181 %ID/cc, the Concentration in liver ([4]; 30 min after administration) was 0.0114 %ID/cc and the Concentration in lung ([4]; 30 min after administration) was 0.0072 %ID/cc. For the same compound, the Concentration in plasma ([4]; 30 min after administration) was 0.00348 %ID/cc, the Concentration in heart ([4]; 60 min after administration) was 0.0044 %ID/cc and the “Concentration in kidney cortex” value ([4]; 60 min after administration) was 0.0091 %ID/cc. For the same compound, the “Concentration in kidney medulla” value ([4]; 60 min after administration) was 0.0193 %ID/cc, the Concentration in liver ([4]; 60 min after administration) was 0.0090 %ID/cc and the Concentration in lung ([4]; 60 min after administration) was 0.0052 %ID/cc. For the same compound, the Concentration in plasma ([4]; 60 min after administration) was 0.00241 %ID/cc, the Concentration in heart ([4]; 90 min after administration) was 0.0049 %ID/cc and the “Concentration in kidney cortex” value ([4]; 90 min after administration) was 0.0100 %ID/cc. The “Concentration in kidney medulla” value ([4]; 90 min after administration) was 0.0173 %ID/cc, the Concentration in liver ([4]; 90 min after administration) was 0.0081 %ID/cc and the Concentration in lung ([4]; 90 min after administration) was 0.0049 %ID/cc. For the same compound, the Concentration in plasma ([4]; 90 min after administration) was 0.0019 %ID/cc.
